Converted amounts (≈) assume the structure as drawn. “And” between values parts separate entries of the source, which are not always exact repeats. Identical values can stand only once.
Key:
S. aureus isolates [1] = assay: MIC determination (broth microdilution) against 8 S. aureus isolates; assay type: cell-based; settings: CAMHB, unit assumed
Experimental: Suitable methods for assessing the activity of a modified lysin polypeptide as disclosed herein are well known in the art and described in the examples. […] For example, MIC values for a modified lysin polypeptide may be determined against e.g., laboratory Staphylococcus aureus strains, in e.g., Mueller-Hinton broth or Mueller-Hinton broth supplemented with serum, such as horse serum.
The pp296 MICs were determined based on (1) cation-adjusted Mueller-Hinton Broth with 25% horse serum and 0.5 mM DTT (caMHB-HSD); (2) human serum (100% serum); and (3) ICR mice (100% serum). Vancomycin and daptomycin MICs of the isolate strains were determined in accordance with the broth microdilution method as outlined by CLSI. Results of the MIC determination are shown below in Table 2. The bacterial isolates were frozen at −80° C. in skim milk.

S. aureus = assay: pp296 dose fractionation study, neutropenic murine thigh infection model; assay type: in vivo; settings: vancomycin 3 mg/kg Q12h SC alone, 24 h
Experimental: Each of the pp296 TDDs was fractionated into three regimens, i.e., one-third of the entire dose was administered via IV three times (q8h); one-half of the entire does was administered via IV two times (q12h), or the entire dose was administered via IV once daily over a 24-hour period, for a total of three groups per each TDD.
Untreated control mice (n=3/group) were sacrificed just prior to antibiotic administration, as well as 24 hours later. Animals sacrificed prior to antibiotic administration served as 0-hour control animals, representing initial bacterial burden. The 24-hour control animals received sterile normal saline in the same volume and schedule as the most frequent active drug regimen. […] After the 24-hour treatment period, all animals were euthanized and thighs were cultured quantitatively as described above. The change in bacterial density was calculated for each of the dosing regimen. Comparisons were made between the different regimens of the same total daily dose on bacterial burdens at 24 hours using one-way Analysis of Variance (ANOVA) test followed by Tukey's test where the P value was 0.05.

S. aureus isolates [2] = assay: In vivo efficacy of vancomycin in combination with pp296, neutropenic murine thigh infection model; settings: 24 h; for Replicate Log10 CFU/thigh data: listed as VAN
Experimental: (§1) Study animals: Specific pathogen-free female ICR mice (average body weight 23 grams) were provided food and water ad libitum and maintained and used in accordance with National Research Council recommendations. Animals were allowed a 48-hour post-delivery acclimation period before every experiment. Mice were rendered transiently neutropenic by injection of cyclophosphamide via intraperitoneal (IP) route at a dose of 150 mg/kg of body weight at four days before bacterial inoculation and 100 mg/kg of body weight at one day before bacterial inoculation.
(§2) Neutropenic Thigh Infection Model: Two transfers of the bacterial isolates were performed onto trypticase soy agar plates with 5% sheep blood and placed into an incubator at 37° C. for approximately 24 hours. After an 18-24 hour incubation of the second transfer, a suspension of approximately 10^7 CFU/mL was made for inoculation. Final bacterial inoculum concentrations were confirmed by serial dilution and plating techniques. Thigh infection with the test isolate was produced by intramuscular injection of 0.1 mL of the bacterial inoculum into each thigh of the mice. Antimicrobial therapy was initiated 2 hours after bacterial inoculation, as detailed below. […]
Untreated control mice (n=3) were sacrificed just prior to antibiotic administration and 24 hours after bacterial inoculation. Animals sacrificed prior to antibiotic initiation served as 0-hour control animals, representing initial bacterial burden. […] Treatment mice (n=3/group) were sacrificed at the end of the 24 hour treatment period. After sacrifice, both thighs for each mouse were homogenized in normal saline. Serial dilutions were plated on Trypticase soy agar with 5% sheep blood and incubated for 18 to 20 hours at 37.0 to determine the CFU. Efficacy was calculated as the change in bacterial density obtained in treated mice after 24 hours compared with the numbers in the 0-hour control animals. Bacterial density represents the average CFU determined from 3 mice, each contributing 2 thighs.

S. aureus isolates [3] = assay: Vancomycin dose-ranging, neutropenic murine thigh infection model; assay type: in vivo; settings: 24 h
Experimental: as §1
as §2, with “mice.” for “mice. Antimicrobial therapy was initiated 2 hours after bacterial inoculation, as detailed below.”
Two hours post-bacterial inoculation, one group of mice (n=3) was sacrificed to serve as a 0 hour control, representing initial bacterial burden in the thigh, wherein bacterial burden is determined as the average CFU from 6 thighs, i.e., 2 thighs per mouse. […]

CN[C@H](CC(C)C)C(=O)N[C@H]1C(=O)N[C@@H](CC(N)=O)C(=O)N[C@H]2C(=O)N[C@H]3C(=O)N[C@H](C(=O)N[C@H](C(=O)O)c4cc(O)cc(O)c4-c4cc3ccc4O)[C@H](O)c3ccc(c(Cl)c3)Oc3cc2cc(c3O[C@@H]2O[C@H](CO)[C@@H](O)[C@H](O)[C@H]2O[C@H]2C[C@](C)(N)[C@H](O)[C@H](C)O2)Oc2ccc(cc2Cl)[C@H]1O [Vancomycin, vancomycin]
MIC Vancomycin (CAMHB) (S. aureus isolates [1]; ATCC 29213 MSSA): 1 µg/mL (≈ 0.69 µM)
MIC Vancomycin (CAMHB) (S. aureus isolates [1]; CAIRD426 MRSA): 1 µg/mL (≈ 0.69 µM)
MIC Vancomycin (CAMHB) (S. aureus isolates [1]; HPV107 MRSA): 1 µg/mL (≈ 0.69 µM)
MIC Vancomycin (CAMHB) (S. aureus isolates [1]; JMI227 MRSA): 1 µg/mL (≈ 0.69 µM)
MIC Vancomycin (CAMHB) (S. aureus isolates [1]; JMI4789 MRSA): 1 µg/mL (≈ 0.69 µM)
MIC Vancomycin (CAMHB) (S. aureus isolates [1]; NRS100 (COL) MRSA): 1 µg/mL (≈ 0.69 µM)
MIC Vancomycin (CAMHB) (S. aureus isolates [1]; NRS123 (MW2) MRSA): 1 µg/mL (≈ 0.69 µM)
MIC Vancomycin (CAMHB) (S. aureus isolates [1]; NRS271 MRSA/LRSA): 1 µg/mL (≈ 0.69 µM)
bacterial burden vs 0-hour control mice (S. aureus): 0.41±0.62 log10 CFU/thigh
Replicate Log10 CFU/thigh data (S. aureus isolates [2]; ATCC2921, VAN 3 mg/kg alone): 4.59 Log10 CFU/thigh and 4.96 Log10 CFU/thigh and 7.87 Log10 CFU/thigh and 5.18 Log10 CFU/thigh and 7.18 Log10 CFU/thigh and 6.03 Log10 CFU/thigh
Replicate Log10 CFU/thigh data (S. aureus isolates [2]; CAIRD426, VAN 1.5 mg/kg alone): 6.89 Log10 CFU/thigh and 6.51 Log10 CFU/thigh and 7.97 Log10 CFU/thigh and 8.04 Log10 CFU/thigh
Replicate Log10 CFU/thigh data (S. aureus isolates [2]; CAIRD426, VAN 3 mg/kg alone, Run #1): 4.81 Log10 CFU/thigh and 7.53 Log10 CFU/thigh and 6.53 Log10 CFU/thigh
Replicate Log10 CFU/thigh data (S. aureus isolates [2]; CAIRD426, VAN 3 mg/kg alone, Run #2): 7.82 Log10 CFU/thigh and 8.21 Log10 CFU/thigh and 7.74 Log10 CFU/thigh and 7.40 Log10 CFU/thigh and 7.47 Log10 CFU/thigh and 7.20 Log10 CFU/thigh
Replicate Log10 CFU/thigh data (S. aureus isolates [2]; HPV107, VAN 1.5 mg/kg alone): 8.44 Log10 CFU/thigh and 8.20 Log10 CFU/thigh and 8.00 Log10 CFU/thigh and 7.87 Log10 CFU/thigh and 8.32 Log10 CFU/thigh
Replicate Log10 CFU/thigh data (S. aureus isolates [2]; HPV107, VAN 3 mg/kg alone, Run #1): 7.50 Log10 CFU/thigh and 7.81 Log10 CFU/thigh and 7.24 Log10 CFU/thigh and 7.40 Log10 CFU/thigh and 7.36 Log10 CFU/thigh and 6.51 Log10 CFU/thigh
Replicate Log10 CFU/thigh data (S. aureus isolates [2]; HPV107, VAN 3 mg/kg alone, Run #2): 7.49 Log10 CFU/thigh and 7.73 Log10 CFU/thigh and 5.45 Log10 CFU/thigh
Replicate Log10 CFU/thigh data (S. aureus isolates [2]; JMI227, VAN 3 mg/kg alone): 7.50 Log10 CFU/thigh and 6.17 Log10 CFU/thigh and 8.04 Log10 CFU/thigh and 8.21 Log10 CFU/thigh and 8.47 Log10 CFU/thigh and 7.51 Log10 CFU/thigh
Replicate Log10 CFU/thigh data (S. aureus isolates [2]; JMI4789, VAN 3 mg/kg alone): 8.41 Log10 CFU/thigh and 8.01 Log10 CFU/thigh and 6.93 Log10 CFU/thigh (2×) and 4.92 Log10 CFU/thigh
Replicate Log10 CFU/thigh data (S. aureus isolates [2]; NRS100, VAN 1.5 mg/kg alone): 6.30 Log10 CFU/thigh and 4.89 Log10 CFU/thigh and 4.85 Log10 CFU/thigh and 4.30 Log10 CFU/thigh and 4.69 Log10 CFU/thigh and 6.73 Log10 CFU/thigh
Replicate Log10 CFU/thigh data (S. aureus isolates [2]; NRS100, VAN 3 mg/kg alone, Run #1): 4.58 Log10 CFU/thigh (2×) and 4.90 Log10 CFU/thigh and 4.89 Log10 CFU/thigh and 4.48 Log10 CFU/thigh and 4.56 Log10 CFU/thigh
Replicate Log10 CFU/thigh data (S. aureus isolates [2]; NRS100, VAN 3 mg/kg alone, Run #2): 4.75 Log10 CFU/thigh and 6.89 Log10 CFU/thigh and 4.70 Log10 CFU/thigh and 4.58 Log10 CFU/thigh and 4.83 Log10 CFU/thigh and 6.46 Log10 CFU/thigh
Replicate Log10 CFU/thigh data (S. aureus isolates [2]; NRS123, VAN 3 mg/kg alone): 7.17 Log10 CFU/thigh and 7.02 Log10 CFU/thigh and 7.77 Log10 CFU/thigh and 8.38 Log10 CFU/thigh and 8.32 Log10 CFU/thigh and 8.01 Log10 CFU/thigh
Replicate Log10 CFU/thigh data (S. aureus isolates [2]; NRS217, VAN 1.5 mg/kg alone): 7.60 Log10 CFU/thigh and 8.28 Log10 CFU/thigh and 8.26 Log10 CFU/thigh and 7.90 Log10 CFU/thigh and 6.43 Log10 CFU/thigh and 7.61 Log10 CFU/thigh
Replicate Log10 CFU/thigh data (S. aureus isolates [2]; NRS217, VAN 3 mg/kg alone, Run #1): 6.66 Log10 CFU/thigh and 6.70 Log10 CFU/thigh and 7.23 Log10 CFU/thigh and 6.68 Log10 CFU/thigh and 7.60 Log10 CFU/thigh and 6.55 Log10 CFU/thigh
Replicate Log10 CFU/thigh data (S. aureus isolates [2]; NRS217, VAN 3 mg/kg alone, Run #2): 7.06 Log10 CFU/thigh and 7.38 Log10 CFU/thigh and 5.26 Log10 CFU/thigh and 4.73 Log10 CFU/thigh and 6.82 Log10 CFU/thigh
Replicate Log10 CFU/thigh data (S. aureus isolates [2]; isolate HPV107, VAN 5 mg/kg q12h SC alone): 4.73 Log10 CFU/thigh and 8.28 Log10 CFU/thigh and 4.75 Log10 CFU/thigh and 4.88 Log10 CFU/thigh
Replicate Log10 CFU/thigh data (S. aureus isolates [2]; isolate NRS100, VAN 5 mg/kg q12h SC alone): 4.68 Log10 CFU/thigh (2×) and 4.78 Log10 CFU/thigh (2×) and 4.56 Log10 CFU/thigh and 4.73 Log10 CFU/thigh
Replicate Log10 CFU/thigh data (S. aureus isolates [2]; isolate NRS217, VAN 5 mg/kg q12h SC alone): 4.64 Log10 CFU/thigh and 6.13 Log10 CFU/thigh and 4.76 Log10 CFU/thigh and 4.56 Log10 CFU/thigh and 4.75 Log10 CFU/thigh
average bacterial growth vs starting inoculum (S. aureus isolates [2]; vancomycin 1.5 mg/kg Q12h SC alone, 4 isolates): 2.75±0.52 log10 CFU/thigh
average bacterial reduction vs starting inoculum (S. aureus isolates [2]; vancomycin 5 mg/kg q12h SC alone, 4 isolates): −0.38±1.10 log10 CFU/thigh
bacterial burden reduction vs 0-hour controls (S. aureus isolates [3]; upper end of dose-response, vancomycin 3.125-25 mg/kg q12h SC, all isolates): −1.15±0.40 log10 CFU/thigh
mean bacterial burden change vs 0-hour controls (S. aureus isolates [3]; vancomycin 3.125 mg/kg q12h SC, mean of 8 isolates): −0.05±1.16 log10 CFU/thigh

— patent publication US20230277632A1, “MODIFIED PlySs2 LYSINS AND ANTIBIOTIC COMBINATIONS FOR USE AGAINST GRAM-POSITIVE BACTERIA” (ContraFect Corporation, priority 2020, published 2023)
